{"source": "paper PMC8480901", "about": "(PLoS ONE, 2021)", "test_system": "J774.2 mouse macrophages", "test": "LPS-induced cytokine and chemokine levels in J774.2 mouse macrophage cell supernatant (ELISA)", "type": "cell-based", "conditions": "LPS; for TNF-α / CCl2, % reduction / CCl2, Mean / GM-CSF % reduction / GM-CSF Mean / IL-1β % reduction / IL-1β Mean / IL-6 % reduction / IL-6 Mean / TNF-α % reduction / TNF-α Mean / CCl2 / CXCL1 / GM-CSF / IL-1β / IL-6: J774.2 supernatant; for TNF-α / CCl2 / CXCL1 / GM-CSF / IL-1β / IL-6 / CXCL2 / MMP9: individual replicate; for CXCL2 / MMP9: J774.2 cells", "note": "Values joined by “and” are separate entries in the source; they are usually repeats but may differ in a detail not shown here. Equal values may be shown once."}
{"smiles": "CC[C@H]1OC(=O)[C@H](C)[C@@H](O[C@H]2C[C@@](C)(OC)[C@@H](O)[C@H](C)O2)[C@H](C)[C@@H](O[C@@H]2O[C@H](C)C[C@H](N(C)C)[C@H]2O)[C@](C)(O)C[C@@H](C)CN(C)[C@H](C)[C@@H](O)[C@]1(C)O", "note": "[Azithromycin]", "values": [{"measurement": "TNF-α", "setting": "0.3 µM", "value": "1462.3 pg/mL and 1488.2 pg/mL"}, {"measurement": "CCl2, % reduction", "setting": "1 µM", "value": 17, "unit": "%"}, {"measurement": "CCl2, Mean", "setting": "1 µM", "value": 29990, "unit": "pg/mL"}, {"measurement": "GM-CSF % reduction", "setting": "1 µM", "value": 67, "unit": "%"}, {"measurement": "GM-CSF Mean", "setting": "1 µM", "value": 467, "unit": "pg/mL"}, {"measurement": "IL-1β % reduction", "setting": "1 µM", "value": 4.32, "unit": "%"}, {"measurement": "IL-1β Mean", "setting": "1 µM", "value": 183, "unit": "pg/mL"}, {"measurement": "IL-6 % reduction", "setting": "1 µM", "value": 10, "unit": "%"}, {"measurement": "IL-6 Mean", "setting": "1 µM", "value": 69772, "unit": "pg/mL"}, {"measurement": "TNF-α % reduction", "setting": "1 µM", "value": -11, "unit": "%"}, {"measurement": "TNF-α Mean", "setting": "1 µM", "value": 1515, "unit": "pg/mL"}, {"measurement": "CCl2", "setting": "1 µM", "value": "27895.3 pg/mL and 32084.6 pg/mL"}, {"measurement": "CXCL1", "setting": "1 µM", "value": "29.3 pg/mL and 31.2 pg/mL"}, {"measurement": "GM-CSF", "setting": "1 µM", "value": "431.5 pg/mL and 502.0 pg/mL"}, {"measurement": "IL-1β", "setting": "1 µM", "value": "188.28 pg/mL and 176.943 pg/mL"}, {"measurement": "IL-6", "setting": "1 µM", "value": "65142 pg/mL and 74401 pg/mL"}, {"measurement": "TNF-α", "setting": "1 µM", "value": "1479.7 pg/mL and 1551.1 pg/mL"}, {"measurement": "CCl2, % reduction", "setting": "3 µM", "value": 4, "unit": "%"}, {"measurement": "CCl2, Mean", "setting": "3 µM", "value": 34644, "unit": "pg/mL"}, {"measurement": "GM-CSF % reduction", "setting": "3 µM", "value": 57, "unit": "%"}, {"measurement": "GM-CSF Mean", "setting": "3 µM", "value": 606, "unit": "pg/mL"}, {"measurement": "IL-1β % reduction", "setting": "3 µM", "value": -7, "unit": "%"}, {"measurement": "IL-1β Mean", "setting": "3 µM", "value": 204, "unit": "pg/mL"}, {"measurement": "IL-6 % reduction", "setting": "3 µM", "value": 7, "unit": "%"}, {"measurement": "IL-6 Mean", "setting": "3 µM", "value": 71996, "unit": "pg/mL"}, {"measurement": "TNF-α % reduction", "setting": "3 µM", "value": -31, "unit": "%"}, {"measurement": "TNF-α Mean", "setting": "3 µM", "value": 1780, "unit": "pg/mL"}, {"measurement": "CCl2", "setting": "3 µM", "value": "38396.7 pg/mL and 30890.3 pg/mL"}, {"measurement": "CXCL1", "setting": "3 µM", "value": "37.9 pg/mL and 28.5 pg/mL"}, {"measurement": "GM-CSF", "setting": "3 µM", "value": "728.6 pg/mL and 484.1 pg/mL"}, {"measurement": "IL-1β", "setting": "3 µM", "value": "204.824 pg/mL and 203.959 pg/mL"}, {"measurement": "IL-6", "setting": "3 µM", "value": "78966 pg/mL and 65026 pg/mL"}, {"measurement": "TNF-α", "setting": "3 µM", "value": "1995.5 pg/mL and 1564.5 pg/mL"}, {"measurement": "CCl2, % reduction", "setting": "10 µM", "value": 9, "unit": "%"}, {"measurement": "CCl2, Mean", "setting": "10 µM", "value": 32971, "unit": "pg/mL"}, {"measurement": "GM-CSF % reduction", "setting": "10 µM", "value": 52, "unit": "%"}, {"measurement": "GM-CSF Mean", "setting": "10 µM", "value": 674, "unit": "pg/mL"}, {"measurement": "IL-1β % reduction", "setting": "10 µM", "value": 1.15, "unit": "%"}, {"measurement": "IL-1β Mean", "setting": "10 µM", "value": 189, "unit": "pg/mL"}, {"measurement": "IL-6 % reduction", "setting": "10 µM", "value": 15, "unit": "%"}, {"measurement": "IL-6 Mean", "setting": "10 µM", "value": 65894, "unit": "pg/mL"}, {"measurement": "TNF-α % reduction", "setting": "10 µM", "value": -25, "unit": "%"}, {"measurement": "TNF-α Mean", "setting": "10 µM", "value": 1709, "unit": "pg/mL"}, {"measurement": "CCl2", "setting": "10 µM", "value": "34921.6 pg/mL and 31021.1 pg/mL"}, {"measurement": "CXCL1", "setting": "10 µM", "value": "42.9 pg/mL and 34.6 pg/mL"}, {"measurement": "GM-CSF", "setting": "10 µM", "value": "752.0 pg/mL and 595.8 pg/mL"}, {"measurement": "IL-1β", "setting": "10 µM", "value": "185.693 pg/mL and 191.532 pg/mL"}, {"measurement": "IL-6", "setting": "10 µM", "value": "62169 pg/mL and 69619 pg/mL"}, {"measurement": "TNF-α", "setting": "10 µM", "value": "1793.0 pg/mL and 1624.6 pg/mL"}, {"measurement": "CCl2, % reduction", "setting": "30 µM", "value": -14, "unit": "%"}, {"measurement": "CCl2, Mean", "setting": "30 µM", "value": 40819, "unit": "pg/mL"}, {"measurement": "GM-CSF % reduction", "setting": "30 µM", "value": 66, "unit": "%"}, {"measurement": "GM-CSF Mean", "setting": "30 µM", "value": 483, "unit": "pg/mL"}, {"measurement": "IL-1β % reduction", "setting": "30 µM", "value": 28, "unit": "%"}, {"measurement": "IL-1β Mean", "setting": "30 µM", "value": 138, "unit": "pg/mL"}, {"measurement": "IL-6 % reduction", "setting": "30 µM", "value": 43, "unit": "%"}, {"measurement": "IL-6 Mean", "setting": "30 µM", "value": 44169, "unit": "pg/mL"}, {"measurement": "TNF-α % reduction", "setting": "30 µM", "value": -15, "unit": "%"}, {"measurement": "TNF-α Mean", "setting": "30 µM", "value": 1566, "unit": "pg/mL"}, {"measurement": "CCl2", "setting": "30 µM", "value": "40980.3 pg/mL and 40657.2 pg/mL"}, {"measurement": "CXCL1", "setting": "30 µM", "value": "68.6 pg/mL and 51.5 pg/mL"}, {"measurement": "GM-CSF", "setting": "30 µM", "value": "510.8 pg/mL and 455.1 pg/mL"}, {"measurement": "IL-1β", "setting": "30 µM", "value": "129.379 pg/mL and 146.376 pg/mL"}, {"measurement": "IL-6", "setting": "30 µM", "value": "40788 pg/mL and 47550 pg/mL"}, {"measurement": "TNF-α", "setting": "30 µM", "value": "1637.1 pg/mL and 1494.0 pg/mL"}, {"measurement": "CCl2, % reduction", "setting": "100 µM", "value": 12, "unit": "%"}, {"measurement": "CCl2, Mean", "setting": "100 µM", "value": 31879, "unit": "pg/mL"}, {"measurement": "GM-CSF % reduction", "setting": "100 µM", "value": 76, "unit": "%"}, {"measurement": "GM-CSF Mean", "setting": "100 µM", "value": 343, "unit": "pg/mL"}, {"measurement": "IL-1β % reduction", "setting": "100 µM", "value": 36, "unit": "%"}, {"measurement": "IL-1β Mean", "setting": "100 µM", "value": 122, "unit": "pg/mL"}, {"measurement": "IL-6 % reduction", "setting": "100 µM", "value": 69, "unit": "%"}, {"measurement": "IL-6 Mean", "setting": "100 µM", "value": 24231, "unit": "pg/mL"}, {"measurement": "TNF-α % reduction", "setting": "100 µM", "value": -21, "unit": "%"}, {"measurement": "TNF-α Mean", "setting": "100 µM", "value": 1656, "unit": "pg/mL"}, {"measurement": "CCl2", "setting": "100 µM", "value": "33824.3 pg/mL and 29933.1 pg/mL"}, {"measurement": "CXCL1", "setting": "100 µM", "value": "66.2 pg/mL and 50.6 pg/mL"}, {"measurement": "GM-CSF", "setting": "100 µM", "value": "399.7 pg/mL and 287.0 pg/mL"}, {"measurement": "IL-1β", "setting": "100 µM", "value": "120.112 pg/mL and 124.217 pg/mL"}, {"measurement": "IL-6", "setting": "100 µM", "value": "25573 pg/mL and 22888 pg/mL"}, {"measurement": "TNF-α", "setting": "100 µM", "value": "1818.4 pg/mL and 1493.5 pg/mL"}, {"measurement": "CXCL2", "setting": "compound 0.03 µM", "value": "14544.8 pg/mL and 27111.4 pg/mL"}, {"measurement": "MMP9", "setting": "compound 0.03 µM", "value": "1137.13 pg/mL and 1348.53 pg/mL"}, {"measurement": "CXCL2", "setting": "compound 0.1 µM", "value": "14262.2 pg/mL and 26368.8 pg/mL"}, {"measurement": "MMP9", "setting": "compound 0.1 µM", "value": "973.296 pg/mL and 1170.61 pg/mL"}, {"measurement": "CXCL2", "setting": "compound 0.3 µM", "value": "19194.7 pg/mL and 27003.7 pg/mL"}, {"measurement": "MMP9", "setting": "compound 0.3 µM", "value": "981.336 pg/mL and 1072.64 pg/mL"}, {"measurement": "CXCL2", "setting": "compound 1 µM", "value": "28271.6 pg/mL and 28293.6 pg/mL"}, {"measurement": "MMP9", "setting": "compound 1 µM", "value": "1115.62 pg/mL and 1010.37 pg/mL"}, {"measurement": "CXCL2", "setting": "compound 3 µM", "value": "17053.3 pg/mL and 14683.3 pg/mL"}, {"measurement": "MMP9", "setting": "compound 3 µM", "value": 1120.5, "unit": "pg/mL"}, {"measurement": "CXCL2", "setting": "compound 10 µM", "value": "20008.2 pg/mL and 16019.2 pg/mL"}, {"measurement": "MMP9", "setting": "compound 10 µM", "value": "846.885 pg/mL and 873.775 pg/mL"}, {"measurement": "CXCL2", "setting": "compound 30 µM", "value": "23084.4 pg/mL and 24875.0 pg/mL"}, {"measurement": "MMP9", "setting": "compound 30 µM", "value": "575.954 pg/mL and 501.629 pg/mL"}, {"measurement": "CXCL2", "setting": "compound 100 µM", "value": "19137.4 pg/mL and 23402.0 pg/mL"}, {"measurement": "MMP9", "setting": "compound 100 µM", "value": "340.616 pg/mL and 323.365 pg/mL"}]}
